# In ChEMBL document CHEMBL3507680, “University of Dundee, Gates Library screen for HepG2 cell viability”:
# Assay: Human HepG2 cell viability assay in 384 well format
# Assay type: toxicity, cell-based
# Parameters: dose 125 nL, time 70.5 hour; concentration not given beside the values
# Details: HepG2 cells, read-out: Inhibition
row,Compound,cytotoxicity at 70.5 h [%]
1,COCCC(=O)N1CCCC2(CCC(=O)N(CCc3c[nH]cn3)C2)C1 (stereo unspecified),-5.35
2,CCOc1cccc(C(=O)N2C[C@H]3CC[C@@H]2CN(C(=O)C2CCC2)C3)c1,23.1
3,CCOC(=O)CNC(=O)N1CCCC(CNC(=O)c2ccco2)C1 (stereo unspecified),-1.85
4,CCC(=O)Nc1cccc(OCC(=O)N(C)Cc2nc(C)c[nH]2)c1,-4.8
5,COc1ccc(C(=O)C2CCCN(CCc3ccccc3)C2)c(OC)c1 (stereo unspecified),18.4
6,CS(=O)(=O)N1CCC(Oc2ccc(C(=O)NCC3CCC3)cc2Cl)CC1,-12.8
7,O=C(O)CSc1nnc(-c2cn[nH]c2)n1-c1ccccc1C(F)(F)F,-3.6
8,CC[C@@H](NC(C)=O)C(=O)NCc1cccnc1Oc1ccccc1OC,8.31
9,COc1ccc(F)c(-c2nccn2CCN2CCCC2)c1,33.7
10,Cc1ccnc(NCC2(N(C)C)CCOCC2)n1,-2.1
11,COc1cc(C)cc(C(C(=O)O)N2CCN(C3CCCC3)CC2)c1OC (stereo unspecified),-2.66
12,Cc1ccccc1N1CCN(C(=O)Cc2ccc3c(c2)OCO3)CC1=O,-2.79
13,CC(C)(O)CCc1cccc(C(=O)N2CCC3(CCO3)CC2)c1,-1.91
14,O=C(N[C@@H]1CCN(Cc2ccc(F)cc2F)C[C@H]1O)c1cccnc1,8.03
15,CCc1nc2c(c(N(C)Cc3nncn3CCOC)n1)CCNCC2,-8.26
16,Cn1cc(CNCC2(O)CCCN(Cc3ccc(F)c(F)c3)C2=O)cn1 (stereo unspecified),-3.67
17,CNCc1n[nH]c(=O)n1-c1ccccc1Oc1ccccc1,1.39
18,CCS(=O)(=O)c1ncc(CN(C)CCc2ccccn2)n1CCOC,-8.19
19,Cc1noc(C)c1CN(C)c1ncnc2onc(C)c12,9.42
20,COC(=O)CC1CCN(C(=O)Nc2ccc(-c3ccn[nH]3)cc2)C1 (stereo unspecified),1.65
21,CCC1CN(C(=O)c2csc3nc(-c4ccc(Cl)cc4)cn23)CCN1 (stereo unspecified),-12.3
22,Cc1c(CN2CC[C@@H](N3CCC(O)CC3)[C@H](O)C2)[nH]c2ccc(Cl)cc12,-0.941
23,COc1c(C)cnc(CN(C)C2CCOC3(CCOCC3)C2)c1C (stereo unspecified),-19.1

row,Compound,cytotoxicity at 70.5 h [%]
1,CC(=O)NCc1cc2n(n1)CCN(Cc1cccc(Cl)c1F)C2,36.9
2,CNc1nc(C(=O)N2C[C@@H]3CCN(C)[C@@H]3C2)cs1,-3.23
3,CCn1c(C2CCCNC2)nn(Cc2ccc(C(=O)NC)o2)c1=O (stereo unspecified),-3.04
4,Cc1nc(CC(=O)N2CCCC[C@H](N(C)C)C2)cs1,-7.83
5,Cc1nccn1-c1ccc(N2CCC(NC(C)CC(C)C)CC2)cc1 (stereo unspecified),10.6
6,CCn1nc(C)c(CN(CCOC)C(=O)c2cnc(C)nc2O)c1C,-6.8
7,CN(C)c1cncc(-c2ccnc3c2ccn3C)n1,-0.942
8,Cc1ccc(OC2(C(=O)O)CCN(C/C=C/c3ccco3)CC2)cc1,-7.6
9,COc1ccc(C(=O)O)cc1-c1cccc2c1CCNC2,-11.6
10,COc1ccc2[nH]nc(CN3CCC(C(C)N(C)C)CC3)c2c1 (stereo unspecified),1.23
11,Cc1ncnc(NCC(C)N(C)c2ccccc2)c1C (stereo unspecified),29.1
12,CCC[C@@H]1CN(Cc2ccc3c(c2)OCCO3)C[C@H]1C(=O)O,-0.0956
13,CC(C)NS(=O)(=O)c1cc(C(=O)O)cc(-n2cc3c(n2)CCC3)c1,-0.272
14,O=C1CCCN1CCc1noc(-c2ccc(Cl)cc2)n1,-10.6
15,O=C(CCc1cc2n(n1)CCCNC2)N1CCC(N2CCOC2=O)CC1,-3.48
16,O=C(N[C@H]1COC[C@@H]1N1CCCC1)c1csc(Cc2ccccc2)n1,-14.1
17,Cc1cc(C)n(C2CN(C(=O)Cn3c(C)cc(=O)c4ccccc43)C2)n1,-5.3
18,O=C1CCC2(CCCN(c3ncc(Cl)cc3F)C2)CN1CC1CC1 (stereo unspecified),-1.6
19,CCSc1ccc(C(=O)N2CC[C@](C)(O)[C@H](C)C2)s1,-10.1
20,C[C@@H]1CN(C(=O)c2cc(Cn3ccc4ccccc43)[nH]n2)C[C@H](C)O1,26.1
21,COc1ccccc1C1CNC(=O)c2nc(-c3c(C)n[nH]c3C)[nH]c2C1 (stereo unspecified),-4.74
22,CN(C)S(=O)(=O)NCc1nc(-c2cccc(F)c2)c(-c2ccccn2)[nH]1,-0.435
23,CC(=O)N1CCC(C(=O)N2CCOC(CC3CCCCC3)C2)CC1 (stereo unspecified),24.3

row,Compound,cytotoxicity at 70.5 h [%]
1,CC(O)c1cn(C2CCN(C(=O)C3(C)CCCCC3)CC2)nn1 (stereo unspecified),14.9
2,COc1ccc(CCN)cc1-c1ccc(O)cc1,-13.9
3,CC(C)(O)CCc1cccc(C(=O)NCc2nccs2)c1,3.29
4,Nc1ncc(C(=O)N2CCCC(N)CC2)c(-c2ccccc2)n1 (stereo unspecified),7.49
5,CCOC(=O)C1(Cc2ccc(Cl)cc2)CCN(Cc2ncc[nH]2)CC1,-10.4
6,Oc1cccc(CN2C[C@H]3CC[C@@H]2CN(Cc2cccnc2)C3)c1,3.01
7,CCN(Cc1ccc(C(C)=O)cc1)CC1CCOCC1,20.6
8,Cc1nc(N2CCCC2)nc(N2CCC(O)(C(=O)O)CC2)c1C,23.8
9,CC(C)=CCN1CCC2(CC1)CC(=O)N(Cc1cc(F)cc(F)c1)C2,2.51
10,Cc1cc(N2CCCC(O)(CN(C)C)C2)c2cc3c(cc2n1)OCO3 (stereo unspecified),0.76
11,CC(=O)N[C@@H]1CN(Cc2ccccc2C(=O)O)C[C@H]1C(C)C,0.633
12,Cc1nc(O)cc(C2CCN(C(=O)c3ccsc3)CC2)n1,-5.48
13,CCc1ncc(CNCc2cccnc2N(C)C)cn1,-12.1
14,CC[C@@H](c1ccccc1)n1c(C2CC2)n[nH]c1=O,-13
15,CCN(CC1CCOCC1)C(=O)CCNC(=O)c1ccccc1F,-23.5
16,CN1CCCN(C(=O)c2cnc(C(C)(C)C)nc2O)CC1,0.369
17,CC(C1CCN(Cc2c(Cl)cncc2Cl)CC1)N1CCOCC1 (stereo unspecified),-5.73
18,CCCc1cc(NCc2noc(COC)n2)n2nccc2n1,-4.21
19,Cc1cc(N2CCC3(CCCN(CCO)C3=O)C2)nc2cc(Cl)ccc12 (stereo unspecified),-19.8
20,O=C(c1coc(COc2ccccc2F)n1)N1CCCO1,-6.81
21,Cc1ocnc1C(=O)N1CC[C@@]2(O)CCN(C(=O)N3CCCC3)C[C@H]2C1,-4.39
22,CC(C)[C@@H]1CN(S(=O)(=O)c2cccc(C(=O)O)c2)C[C@H]1N(C)C,17.4
23,CN1CC2(CCN(C(=O)c3ccc4nccnc4c3)CC2)CC1=O,-4.39

row,Compound,cytotoxicity at 70.5 h [%]
1,Fc1ccc(OC2CCN(CCn3cncn3)CC2)cc1,-9.54
2,CN(C)c1nc2c(c(=O)[nH]1)CCN(C(=O)c1c[nH]c(=O)c(Cl)c1)C2,-0.451
3,CCn1c(C)nnc1SCCNC(=O)CC1CCc2ccccc21 (stereo unspecified),-18.5
4,c1ccc2c(CC3CN(Cc4nccs4)CCO3)cccc2c1 (stereo unspecified),-0.398
5,O=C1CC(c2ccc3ccccc3n2)c2c(n[nH]c2C2CCC2)N1 (stereo unspecified),19.5
6,CCCc1cc(N2CCC(NC3CCS(=O)(=O)C3)CC2)nc(C)n1 (stereo unspecified),-4.65
7,c1cncc(CN(CCCn2ccnc2)CC2CCOC2)c1 (stereo unspecified),-1.27
8,CC(C)n1cnnc1CN(C)C(=O)c1cc(COc2ccccc2)[nH]n1,2.63
9,CCn1nc(C)c(NC(=O)CN2CCN(C(C)=O)CC2)c1C,-10.9
10,COCc1ncn(Cc2nc(-c3ccco3)oc2C)n1,6.06
11,CCCN1CC2(CCN(C)CC2)CC1C(=O)NCCn1ccc(C)n1 (stereo unspecified),-1.37
12,Nc1nc(Cn2ccnc2-c2cc(CN3CCCC3)cs2)cs1,3.17
13,CCN(CC)S(=O)(=O)c1ccc(NC(=O)C(C)(C)C)cc1,-4.91
14,CCc1ccc2nc(NCCOCCO)cc(C)c2c1,-2.24
15,CCN(CC)C(CNCc1ccc(OC)c(F)c1)c1ccco1 (stereo unspecified),54.9
16,CCN(Cc1cnc(NCc2ccccc2)nc1)C1CCS(=O)(=O)C1 (stereo unspecified),-7.52
17,COc1ccc([C@@H]2CN(C(=O)CCc3cc(Cl)no3)C[C@H]2N(C)C)cc1,4
18,CCC(C)Sc1ncc(-c2c(C#N)c(N)nc3c2COCC3)cn1 (stereo unspecified),6.03
19,COCc1noc(CN2CCC3(CC2)[C@H](O)C[C@@H]3OC)n1,-5.38
20,CN(Cc1cc(-c2ccncc2)no1)Cc1nccn1C,10.3
21,CN1CCN(C2CCOCC2)CC12CCC(=O)N(CC1CC1)CC2 (stereo unspecified),-6.33
22,O=C(c1ccon1)N1CCCCC1c1nc2cc(F)ccc2[nH]1 (stereo unspecified),-5.01
23,Cc1nn(CCO)cc1CN1CCC(C(C)N2CCCC2)CC1 (stereo unspecified),-3.99

row,Compound,cytotoxicity at 70.5 h [%]
1,CN1CC2(CCN(C(=O)c3ccc4c(=O)n(C)cnc4c3)C2)OC1=O (stereo unspecified),8.11
2,Cc1ccc(OC2CCN(CCn3cncn3)CC2)cc1,-10.7
3,O=C1CN(CC[C@@H](O)c2ccccc2)CCN1c1ccccc1Cl,-7.1
4,COCCN(Cc1cnn(C)c1)C(=O)C1CCC(=O)N(C2CCCC2)C1 (stereo unspecified),-15
5,Cc1nn(C)c(C)c1C(C(=O)O)N1CC=C(c2ccccc2)CC1 (stereo unspecified),10.9
6,COCCN1CCN(c2ncnc3nc(C)cc(C)c23)CC1,-7.61
7,CSc1ccc(CN(C(=O)c2cc(C)[nH]c(=O)c2)C2CC2)cc1,0.291
8,CCSCCNc1nc(-c2ccccn2)nc2c1c(C)nn2C,2.98
9,CCOC(=O)CC(NC(=O)c1cn(Cc2ccccc2F)nn1)C(C)C (stereo unspecified),-9.35
10,CC(=O)c1cn(CC(=O)N2CCCC(O)(CO)C2)c2ccccc12 (stereo unspecified),28
11,COCCN(C/C=C/c1ccccc1)Cc1nccs1,2.82
12,Cc1ccc(C(=O)N2CCC3(CCC(=O)N(CC(N)=O)C3)CC2)cc1,-8.05
13,Cc1cnc2c(C(=O)N(C)Cc3cc(C4CC4)[nH]n3)cnn2c1,31.8
14,COc1ccc(-c2ccc(C(=O)N3CCOCC3CC(=O)O)o2)cc1 (stereo unspecified),-3.78
15,CCCN1CCN(Cc2cc(Cl)cc(Cl)c2)[C@H]2CS(=O)(=O)C[C@H]21,10.3
16,OC1(CN2CCCCC2)CCN(c2nccc(C(F)(F)F)n2)C1 (stereo unspecified),18.4
17,CS(=O)(=O)N1C[C@@H]2CC[C@H](C1)N(C(=O)CCn1cnc3ccccc31)C2,18.3
18,Cc1cccc2[nH]c(C3CCN(C(=O)c4cccnn4)CC3)nc12,16.6
19,Cc1ccc(CN2CCN(C3CCSCC3)CC2CCO)o1 (stereo unspecified),-0.539
